# Counter-ions that a name gives are not always drawn. Active and inactive are the calls of the source.
# Legend:
# [1] = HEK293T cytotoxicity, dose response, cytotoxicity control for miR-122 modulator project, cell-based, activator set, cherry-pick (AID 720690); assay type: functional;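 also: HEK293T human cells scored for general mammalian cytotoxicity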
# cells [2] = assay type: functional, cell-based
# [3] = target: T1, Nuclear receptor subfamily 0 group B member 1 (Homo sapiens, UniProt P51843); assay type: functional, cell-based;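 also: HEK293T cells transfected with SF-1 and DAX-1 plus StAR promoter luciferase reporter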
# T1 sequence (P51843 whole entry): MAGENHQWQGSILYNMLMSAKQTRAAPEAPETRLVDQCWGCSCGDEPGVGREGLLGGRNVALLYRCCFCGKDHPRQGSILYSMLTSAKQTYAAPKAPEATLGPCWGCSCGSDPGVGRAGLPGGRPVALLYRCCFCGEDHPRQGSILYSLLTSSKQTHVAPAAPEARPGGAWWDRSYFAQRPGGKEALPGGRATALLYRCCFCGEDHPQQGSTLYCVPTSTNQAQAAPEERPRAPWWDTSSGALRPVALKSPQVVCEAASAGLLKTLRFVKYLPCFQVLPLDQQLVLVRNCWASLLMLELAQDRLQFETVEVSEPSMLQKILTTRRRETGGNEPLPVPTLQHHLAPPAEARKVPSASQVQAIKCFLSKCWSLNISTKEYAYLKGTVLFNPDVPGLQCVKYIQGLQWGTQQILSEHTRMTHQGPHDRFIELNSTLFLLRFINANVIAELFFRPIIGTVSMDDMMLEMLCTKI
# Beta-galactosidase = Beta-galactosidase (Escherichia coli, UniProt Q8VNN2); assay: Dose response counterscreen for EBI2 assay utilizing the enzyme, b-galactosidase.; assay type: functional
# Beta-galactosidase, sequence (Q8VNN2 whole entry): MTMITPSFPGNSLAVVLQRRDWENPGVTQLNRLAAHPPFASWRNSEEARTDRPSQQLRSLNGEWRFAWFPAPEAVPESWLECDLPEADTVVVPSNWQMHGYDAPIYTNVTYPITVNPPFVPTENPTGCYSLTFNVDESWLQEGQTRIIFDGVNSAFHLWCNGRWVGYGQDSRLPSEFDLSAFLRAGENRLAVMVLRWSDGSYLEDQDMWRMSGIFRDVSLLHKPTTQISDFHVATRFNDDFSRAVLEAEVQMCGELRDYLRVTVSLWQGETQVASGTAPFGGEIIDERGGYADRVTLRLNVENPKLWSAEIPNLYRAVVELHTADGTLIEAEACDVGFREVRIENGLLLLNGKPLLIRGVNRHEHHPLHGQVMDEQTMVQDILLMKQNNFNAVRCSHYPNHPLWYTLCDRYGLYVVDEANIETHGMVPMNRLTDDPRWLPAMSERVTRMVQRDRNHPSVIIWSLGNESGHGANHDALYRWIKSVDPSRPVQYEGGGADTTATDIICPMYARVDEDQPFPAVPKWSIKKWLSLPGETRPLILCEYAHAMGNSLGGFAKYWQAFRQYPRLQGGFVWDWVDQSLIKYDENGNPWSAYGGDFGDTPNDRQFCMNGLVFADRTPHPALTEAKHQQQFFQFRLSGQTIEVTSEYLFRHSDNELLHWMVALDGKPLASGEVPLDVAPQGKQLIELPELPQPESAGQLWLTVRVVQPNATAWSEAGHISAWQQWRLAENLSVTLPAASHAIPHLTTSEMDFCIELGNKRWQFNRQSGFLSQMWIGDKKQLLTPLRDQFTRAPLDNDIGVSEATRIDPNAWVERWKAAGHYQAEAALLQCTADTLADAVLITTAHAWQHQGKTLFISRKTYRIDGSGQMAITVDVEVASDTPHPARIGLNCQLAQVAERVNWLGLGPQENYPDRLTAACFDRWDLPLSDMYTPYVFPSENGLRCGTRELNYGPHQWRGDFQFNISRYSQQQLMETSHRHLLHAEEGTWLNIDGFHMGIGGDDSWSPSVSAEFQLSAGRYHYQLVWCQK
# [4] = HEK293T cytotoxicity, dose response, cytotoxicity control for miR-122 modulator project, cell-based, inhibitor set, cherry-pick, set 2 (AID 720697); assay type: functional
# [5] = target: T2, Sentrin-specific protease 8 (Homo sapiens, UniProt Q96LD8); assay type: functional
# T2 sequence (Q96LD8 whole entry): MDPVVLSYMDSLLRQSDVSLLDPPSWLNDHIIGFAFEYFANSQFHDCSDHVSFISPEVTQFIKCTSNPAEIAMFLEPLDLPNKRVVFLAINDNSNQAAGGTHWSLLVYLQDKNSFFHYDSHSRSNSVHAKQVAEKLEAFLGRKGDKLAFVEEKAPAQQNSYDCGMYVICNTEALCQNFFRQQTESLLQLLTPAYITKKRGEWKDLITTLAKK
# [6] = target: T2, Sentrin-specific protease 8; assay type: functional; remark: listed apart in the source
# Caspase-3 = target: T3, Caspase-3 (Homo sapiens, UniProt P42574); assay type: functional;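 also: Dose-response selectivity test against caspase-3 for candidate inhibitors of sentrin-specific proteases (SENPs)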
# T3 sequence (P42574 whole entry): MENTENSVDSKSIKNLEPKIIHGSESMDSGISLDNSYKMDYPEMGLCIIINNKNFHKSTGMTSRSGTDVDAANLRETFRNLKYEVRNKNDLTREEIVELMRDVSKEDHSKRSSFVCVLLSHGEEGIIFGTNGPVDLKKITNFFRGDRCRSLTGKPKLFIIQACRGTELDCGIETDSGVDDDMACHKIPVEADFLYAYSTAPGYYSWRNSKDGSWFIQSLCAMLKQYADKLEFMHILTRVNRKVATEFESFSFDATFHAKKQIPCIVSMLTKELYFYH
# [7] = target: T4, Sentrin-specific protease 7 (Homo sapiens, UniProt Q9BQF6); assay type: functional;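 also: Luminescence-based dose-response confirmation of ultra-high-throughput screening hits, measuring inhibition of SENP7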
# T4 sequence (Q9BQF6 whole entry): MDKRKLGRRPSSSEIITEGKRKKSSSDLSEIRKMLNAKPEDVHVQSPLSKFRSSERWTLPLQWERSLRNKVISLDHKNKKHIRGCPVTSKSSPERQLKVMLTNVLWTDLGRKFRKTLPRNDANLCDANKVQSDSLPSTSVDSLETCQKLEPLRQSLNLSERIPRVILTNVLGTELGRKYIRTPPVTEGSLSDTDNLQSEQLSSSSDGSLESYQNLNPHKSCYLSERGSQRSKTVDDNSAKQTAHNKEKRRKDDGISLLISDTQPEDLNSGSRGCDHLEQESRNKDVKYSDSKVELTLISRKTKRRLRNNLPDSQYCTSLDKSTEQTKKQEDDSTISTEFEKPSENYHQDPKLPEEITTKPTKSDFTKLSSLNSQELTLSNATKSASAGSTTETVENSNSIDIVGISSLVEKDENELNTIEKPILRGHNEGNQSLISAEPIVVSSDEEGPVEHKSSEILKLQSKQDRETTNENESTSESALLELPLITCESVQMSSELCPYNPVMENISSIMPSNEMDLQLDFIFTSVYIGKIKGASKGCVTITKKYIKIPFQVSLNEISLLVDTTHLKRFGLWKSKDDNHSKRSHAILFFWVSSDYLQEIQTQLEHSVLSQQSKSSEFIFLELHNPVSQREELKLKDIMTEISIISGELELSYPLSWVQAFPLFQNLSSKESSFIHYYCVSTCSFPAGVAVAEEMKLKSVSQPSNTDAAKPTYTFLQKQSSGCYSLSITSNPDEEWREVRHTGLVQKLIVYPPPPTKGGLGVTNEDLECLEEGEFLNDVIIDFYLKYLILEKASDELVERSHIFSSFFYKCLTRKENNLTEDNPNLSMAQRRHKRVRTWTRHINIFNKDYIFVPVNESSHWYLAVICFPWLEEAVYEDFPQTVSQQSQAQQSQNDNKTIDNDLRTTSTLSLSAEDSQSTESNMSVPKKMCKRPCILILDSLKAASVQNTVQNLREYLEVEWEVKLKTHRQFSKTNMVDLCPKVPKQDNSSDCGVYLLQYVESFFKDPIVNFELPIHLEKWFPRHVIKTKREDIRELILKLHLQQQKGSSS
# [8] = target: T5, Sentrin-specific protease 6 (Homo sapiens, UniProt Q9GZR1); assay type: functional;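 also: Luminescence-based dose-response confirmatory assay of SENP6 inhibition, following up an ultra-high-throughput screen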
# T5 sequence (Q9GZR1 whole entry): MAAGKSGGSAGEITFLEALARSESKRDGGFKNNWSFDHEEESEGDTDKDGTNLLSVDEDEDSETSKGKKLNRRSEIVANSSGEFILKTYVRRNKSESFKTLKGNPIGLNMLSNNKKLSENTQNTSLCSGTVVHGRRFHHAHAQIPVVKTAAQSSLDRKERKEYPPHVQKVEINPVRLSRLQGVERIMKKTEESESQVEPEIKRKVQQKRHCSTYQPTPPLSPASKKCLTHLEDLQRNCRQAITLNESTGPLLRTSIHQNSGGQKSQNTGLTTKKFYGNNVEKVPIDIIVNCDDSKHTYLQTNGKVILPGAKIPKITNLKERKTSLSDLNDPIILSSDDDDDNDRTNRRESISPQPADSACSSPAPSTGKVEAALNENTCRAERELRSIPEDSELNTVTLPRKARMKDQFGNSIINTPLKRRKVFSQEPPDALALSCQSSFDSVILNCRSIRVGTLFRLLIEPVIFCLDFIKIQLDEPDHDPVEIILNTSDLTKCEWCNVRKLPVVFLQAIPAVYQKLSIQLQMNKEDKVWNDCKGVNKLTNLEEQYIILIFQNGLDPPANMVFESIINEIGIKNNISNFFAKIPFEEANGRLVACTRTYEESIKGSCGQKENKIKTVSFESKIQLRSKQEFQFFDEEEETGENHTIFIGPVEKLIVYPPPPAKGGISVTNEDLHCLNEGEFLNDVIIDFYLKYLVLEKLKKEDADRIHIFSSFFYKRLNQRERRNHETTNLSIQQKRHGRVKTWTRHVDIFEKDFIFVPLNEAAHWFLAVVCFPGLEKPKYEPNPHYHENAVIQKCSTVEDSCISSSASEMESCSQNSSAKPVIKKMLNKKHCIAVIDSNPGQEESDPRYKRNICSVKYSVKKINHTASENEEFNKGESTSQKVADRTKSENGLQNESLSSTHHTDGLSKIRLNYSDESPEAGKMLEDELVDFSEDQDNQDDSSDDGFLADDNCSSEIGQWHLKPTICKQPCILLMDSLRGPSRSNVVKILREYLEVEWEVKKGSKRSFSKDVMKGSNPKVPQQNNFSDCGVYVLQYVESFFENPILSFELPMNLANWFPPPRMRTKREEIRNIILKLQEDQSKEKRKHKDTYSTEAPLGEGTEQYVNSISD
# [9] = target: Dual specificity tyrosine-phosphorylation-regulated kinase 1A (Rattus norvegicus, UniProt Q63470); assay type: biochemical, Homo sapiens
# [10] = target: T2, Sentrin-specific protease 8; assay type: functional; remark: listed apart in the source
# cells [11] = assay type: functional
# [12] = miR-122 activators in hepatoma reporter cells, dose response, cell-based, Huh7 psiCHECK-miR122, Renilla luciferase, cherry-picked (AID 651956); assay type: functional;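 also: huh7 hepatoma cells stably carrying a psiCHECK-2 miR-122 sensor plasmid; renilla luciferase signal reporting endogenous miR-122 activity after 48 h compound exposure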
# [13] = target: Photoreceptor-specific nuclear receptor (Homo sapiens, UniProt Q9Y5X4); assay type: functional, cell-based;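 also: CHO-S cells with Gal4-NCOR and VP16-NR2E3 two-hybrid luciferase reporter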
# Photoreceptor-specific nuclear receptor, sequence (Q9Y5X4 whole entry, the tested form may be a part): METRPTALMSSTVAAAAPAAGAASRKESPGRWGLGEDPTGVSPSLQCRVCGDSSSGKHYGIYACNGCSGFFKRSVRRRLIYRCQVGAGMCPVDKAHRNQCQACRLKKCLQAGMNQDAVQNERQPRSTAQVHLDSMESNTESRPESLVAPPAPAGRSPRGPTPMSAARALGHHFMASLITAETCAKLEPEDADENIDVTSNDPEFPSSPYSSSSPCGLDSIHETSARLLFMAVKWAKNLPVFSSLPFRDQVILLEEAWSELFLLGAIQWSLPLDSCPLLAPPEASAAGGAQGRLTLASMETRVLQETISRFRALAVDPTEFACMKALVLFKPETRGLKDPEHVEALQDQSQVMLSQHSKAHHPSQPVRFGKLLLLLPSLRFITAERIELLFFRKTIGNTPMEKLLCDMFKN
# Mu-type opioid receptor = Mu-type opioid receptor (Homo sapiens, UniProt P35372); assay type: functional, cell-based;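 also: U2OS cells with beta-arrestin recruitment to OPRM1 by beta-gal complementation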
# Mu-type opioid receptor, sequence (P35372 whole entry): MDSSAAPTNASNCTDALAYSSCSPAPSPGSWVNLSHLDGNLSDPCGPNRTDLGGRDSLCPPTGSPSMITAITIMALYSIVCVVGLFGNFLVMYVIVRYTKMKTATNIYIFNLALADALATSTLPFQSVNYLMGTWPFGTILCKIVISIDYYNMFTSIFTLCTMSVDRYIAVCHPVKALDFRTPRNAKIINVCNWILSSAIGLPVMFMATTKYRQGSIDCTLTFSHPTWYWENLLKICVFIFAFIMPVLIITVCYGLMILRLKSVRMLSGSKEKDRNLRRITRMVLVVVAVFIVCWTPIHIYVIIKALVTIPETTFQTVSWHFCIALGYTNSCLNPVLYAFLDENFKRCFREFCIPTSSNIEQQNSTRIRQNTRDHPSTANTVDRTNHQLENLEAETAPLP
# [14] = control 3'UTR Renilla luciferase suppression, dose response, counter-screen for Shn3 inhibitor project, cell-based, Clone20-Shn3RL, cherry-picked (AID 624133); assay type: functional
# [15] = Shn3 3'UTR reporter inhibitors, dose response, cell-based, Clone20 osteoblasts, firefly luciferase, cherry-picked (AID 624132); assay type: functional;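 also: firefly luciferase luminescence from reporter carrying the Shn3 3'UTR in osteoblasts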
# [16] = HepG2 cell cytotoxicity, dose response, cytotoxicity control for Shn3 inhibitor project, CellTiter-Glo, cherry-picked (AID 624134); assay type: functional, cell-based
# INS1 = assay: beta cell apoptosis inhibitors, cytokine rescue, dose response, luminescence, retest (AID 449756); assay type: functional, cell-based; settings: Rattus norvegicus;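 also: cell death triggered by IL-1 beta plus TNF-alpha plus IFN-gamma mixture; protective hits raise ATP signal compared with cytokine alone wells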
# [17] = target: FAD-linked sulfhydryl oxidase ALR (Homo sapiens, UniProt P55789); assay: inhibitors of human ALR sulfhydryl oxidase, dose response, biochemical, H2O2 detection, luminescence, cherry-pick (AID 493248)
# FAD-linked sulfhydryl oxidase ALR, sequence (P55789 whole entry): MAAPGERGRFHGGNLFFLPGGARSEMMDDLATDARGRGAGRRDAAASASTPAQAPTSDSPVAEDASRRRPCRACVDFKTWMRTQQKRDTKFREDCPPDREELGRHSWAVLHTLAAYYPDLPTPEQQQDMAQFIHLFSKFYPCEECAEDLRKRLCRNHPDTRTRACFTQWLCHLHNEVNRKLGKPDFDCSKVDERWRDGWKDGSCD
# Paired box protein Pax-8 = Paired box protein Pax-8 (Homo sapiens, UniProt Q06710); assay: inhibitors of PAX8-driven TPO luciferase reporter, dose response, RMG-I cells, cherry-pick (AID 687027); assay type: functional, cell-based;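 also: luciferase reporter driven by Pax8 target thyroperoxidase promoter measured by SteadyGlo luminescence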
# Paired box protein Pax-8, sequence (Q06710 whole entry): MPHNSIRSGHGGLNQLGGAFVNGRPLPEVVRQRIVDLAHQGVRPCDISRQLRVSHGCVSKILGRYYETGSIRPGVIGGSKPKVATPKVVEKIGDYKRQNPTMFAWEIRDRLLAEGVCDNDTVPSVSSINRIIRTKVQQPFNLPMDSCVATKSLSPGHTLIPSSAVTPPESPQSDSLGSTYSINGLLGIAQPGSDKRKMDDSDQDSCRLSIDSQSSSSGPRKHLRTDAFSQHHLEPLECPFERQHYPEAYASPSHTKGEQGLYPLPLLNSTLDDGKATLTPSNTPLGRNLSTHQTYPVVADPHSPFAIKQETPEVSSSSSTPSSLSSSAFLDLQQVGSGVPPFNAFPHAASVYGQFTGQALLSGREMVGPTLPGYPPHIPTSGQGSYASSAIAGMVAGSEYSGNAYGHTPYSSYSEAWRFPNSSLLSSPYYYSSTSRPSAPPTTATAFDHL
compound,measurement,setting,value
C/C=C/c1ccc([C@@H]2[C@H](CO)N[C@H]2CN(CC(C)C)C(=O)c2ccccn2)cc1,AC50,[1],23.5 µM (active)
O=C(Nc1ccc(C(=O)N2CCCCC2)cc1)C1=CSCCO1,IC50,cells [2],> 67.6 µM (inactive)
same,IC50,[3],> 67.6 µM (inactive)
CCOC(=O)N1CCN(C(=O)/C=C/c2ccc(C(C)(C)C)cc2)CC1,IC50,Beta-galactosidase,> 80 µM (inactive)
CN(Cc1ccccc1)C(=O)COC(=O)c1ccccc1Nc1ccccc1,AC50,[4],8.73 µM (active)
CCC(CO)Oc1cc(NCc2ccncc2)c2ncn(C(C)C)c2c1 (stereo not given),IC50,[5],37.6 µM (active)
same,IC50,[6],24.5 µM (active)
CCN(C(=O)c1cc2c(=O)n3ccccc3nc2n1C)C1CCCCC1,IC50,cells [2],> 67.5 µM (inactive)
same,IC50,[3],> 67.5 µM (inactive)
COc1cc(-c2nc3cc(C)ccn3c2NC2CCCCC2)ccc1-c1ccc(C(C)=O)cc1,IC50,Beta-galactosidase,118 µM (inactive)
CC1Cc2cc(/C=C3/SC(=S)NC3=O)ccc2O1 (stereo not given),IC50,Caspase-3,16.9 µM (active)
same,IC50,[7],9.86 µM (active)
same,IC50,[8],8.72 µM (active)
same,AC50,[9],0.308 µM (active)
same,IC50,[10],39.1 µM (active)
same,IC50,cells [11],39.3 µM (active)
CSc1ccc(/C=C/C(=O)c2ccc(NC(=O)Cc3ccccc3)cc2)cc1,IC50,Beta-galactosidase,> 80 µM (inactive)
COc1ccc(/C(C)=N/Nc2nccnc2Cl)cc1,IC50,cells [2],> 67.6 µM (inactive)
same,IC50,[3],> 67.6 µM (inactive)
O=S(=O)(Nc1nccs1)c1ccc(NS(=O)(=O)c2cccs2)cc1,AC50,[12],20.1 µM (active)
same,AC50,[4],5.42 µM (active)
O=C(Nc1cccc(Cl)c1)c1ccc(OC(=S)N2CCOCC2)cc1,IC50,Caspase-3,31.4 µM (active)
same,IC50,[7],2.85 µM (active)
same,IC50,[8],> 100 µM (inactive)
same,IC50,[10],> 100 µM (inactive)
O=NN(CC(=O)NNc1ccccc1)CC(=O)NNc1ccccc1,IC50,[13],18.3 µM (inactive)
CCCN1C[C@H](CSC)C[C@@H]2c3cccc4[nH]cc(c34)C[C@H]21 [PERGOLIDE MESYLATE],EC50,Mu-type opioid receptor,92.5 µM (inactive)
Cc1csc(NC(=O)Cc2nn(C)c(=O)c3ccccc23)n1,AC50,[14],5.18 µM (active)
same,AC50,[15],6.82 µM (active)
same,AC50,[16],46.5 µM (active)
Cc1nc(C)c(-c2csc(Nc3ncccc3C)n2)s1,IC50,Caspase-3,16.4 µM (active)
same,IC50,[7],3.96 µM (active)
same,IC50,[8],5.89 µM (active)
same,IC50,[10],> 100 µM (inactive)
O=C(N/N=C/c1ccc([N+](=O)[O-])o1)c1ccncc1,IC50,[5],39.9 µM (active)
same,IC50,[6],35.3 µM (active)
CCN1CCC2(CC1)N=C(c1ccc(F)cc1)C(=S)N2C(=O)c1ccc(C)cc1,IC50,[5],> 100 µM (inactive)
same,IC50,[6],15.3 µM (active)
COc1ccc(C(=O)/C=C/C(=O)N(CC(=O)NCCC(C)C)Cc2cccs2)c(O)c1,AC50,[14],13.2 µM (active)
same,AC50,[15],3.49 µM (active)
same,AC50,[16],51.7 µM (active)
O=C(Nc1ccc(N2CCN(C(=O)c3ccccc3)CC2)cc1)c1ccc2c(c1)OCO2,IC50,[13],13.3 µM (inactive)
CCNc1nc2c(c(=O)n(C)c(=O)n2C)n1Cc1ccc(Cl)cc1,IC50,[13],14.7 µM (inactive)
COCCC1CCCCN1C(=O)c1cc(COc2ccc(-n3cncn3)cc2)on1 (stereo not given),AC50,[14],1.22 µM (active)
same,AC50,INS1,3.08 µM (active)
same,AC50,[15],0.57 µM (active)
same,AC50,[16],50.5 µM (active)
Cc1ccc(/C=N/Nc2ccc3ccccc3n2)o1,IC50,cells [2],> 67.5 µM (inactive)
same,AC50,[17],5.31 µM (active)
same,IC50,[3],> 67.5 µM (inactive)
COc1ccc(S(=O)(=O)Nc2ccc3c(c2)CC(=O)N([C@@H](C)CO)C[C@@H](C)[C@H](CN(C)Cc2ccc(-c4ccccc4)cc2)O3)cc1,AC50,[1],17.5 µM (active)
same,AC50,Paired box protein Pax-8,6.29 µM (active)
Cc1cc(C)cc(NC(=O)CCc2nc3sc4c(c3c(=O)[nH]2)CCCC4)c1,IC50,[13],0.277 µM (active)
C[C@@H]1CN([C@H](C)CO)C(=O)c2cc(NC(=O)Nc3ccc(C(F)(F)F)cc3)ccc2O[C@@H]1CN(C)CC1CCCCC1,AC50,[12],32.8 µM (active)
same,AC50,[4],10.2 µM (active)
